Counter-ions that a name gives are not always drawn.
Tests used:
Test in all cases: normalized area under the dose-response curve (viability relative to DMSO control) (fraction); higher = less sensitive (more viable cells)
Details in all cases: exposure time not given
[1] = system: SU-DHL1 (cancer type: TCL)
Method: (§1)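 25 myeloma and 15 non-Hodgkin lymphoma cell lines were exposed to each of 76 drugs as 7-point log dilutions (0.01 nM–10 µM) in duplicate. Viability was read with CellTiter-Glo and normalised to DMSO (0.1%) and staurosporine (10 µM) plate controls. Normalised AUC was calculated by the trapezoidal method relative to the negative control.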

[2] = system: OCI-MY5 (cancer type: MM)
Method: as §1

[3] = system: SR-786 (cancer type: TCL)
Method: as §1

U266 (cancer type: MM) = system: U266 (cancer type: MM)
Method: as §1

SKMM2 (cancer type: MM) = system: SKMM2 (cancer type: MM)
Method: as §1

[4] = system: Granta-519 (cancer type: Mantle)
Method: as §1

LP1 (cancer type: MM) = system: LP1 (cancer type: MM)
Method: as §1

[5] = system: JVM2 (cancer type: Mantle)
Method: as §1

KMS34 (cancer type: MM) = system: KMS34 (cancer type: MM)
Method: as §1

FR4 (cancer type: MM) = system: FR4 (cancer type: MM)
Method: as §1

[6] = system: SU-DHL2 (cancer type: DLBCL)
Method: as §1

[7] = system: Mino (cancer type: Mantle)
Method: as §1

OPM2 (cancer type: MM) = system: OPM2 (cancer type: MM)
Method: as §1

[8] = system: OCI-MY5/CRBN (cancer type: MM)
Method: as §1

KMS26 (cancer type: MM) = system: KMS26 (cancer type: MM)
Method: as §1

KMS11 (cancer type: MM) = system: KMS11 (cancer type: MM)
Method: as §1

[9] = system: SU-DHL6 (cancer type: DLBCL)
Method: as §1

[10] = system: JeKo-1 (cancer type: Mantle)
Method: as §1

Se-Ax (cancer type: TCL) = system: Se-Ax (cancer type: TCL)
Method: as §1

[11] = system: OCI-MY7 (cancer type: MM)
Method: as §1

My-La (cancer type: TCL) = system: My-La (cancer type: TCL)
Method: as §1

MM1.S (cancer type: MM) = system: MM1.S (cancer type: MM)
Method: as §1

[12] = system: NCI-H929 (cancer type: MM)
Method: as §1

AMO1 (cancer type: MM) = system: AMO1 (cancer type: MM)
Method: as §1

JJN3 (cancer type: MM) = system: JJN3 (cancer type: MM)
Method: as §1

EJM (cancer type: MM) = system: EJM (cancer type: MM)
Method: as §1

MM1.R (cancer type: MM) = system: MM1.R (cancer type: MM)
Method: as §1

[13] = system: KMS12PE (cancer type: MM)
Method: as §1

KMS18 (cancer type: MM) = system: KMS18 (cancer type: MM)
Method: as §1

XG2 (cancer type: MM) = system: XG2 (cancer type: MM)
Method: as §1

[14] = system: OCI-LY1 (cancer type: DLBCL)
Method: as §1

[15] = system: KMS28BM (cancer type: MM)
Method: as §1

[16] = system: OCI-LY19 (cancer type: DLBCL)
Method: as §1

[17] = system: RPMI 8226 (cancer type: MM)
Method: as §1

[18] = system: OCI-LY3 (cancer type: DLBCL)
Method: as §1

[19] = system: HuT 78 (cancer type: TCL)
Method: as §1

[20] = system: OCI-MY5/Vec (cancer type: MM)
Method: as §1

[21] = system: Karpas-299 (cancer type: TCL)
Method: as §1

[22] = system: KMS28PE (cancer type: MM)
Method: as §1

L363 (cancer type: MM) = system: L363 (cancer type: MM)
Method: as §1

| SMILES | normalized area under the dose-response curve [1] | normalized area under the dose-response curve [2] | normalized area under the dose-response curve [3] | normalized area under the dose-response curve (U266 (cancer type: MM)) | normalized area under the dose-response curve (SKMM2 (cancer type: MM)) | normalized area under the dose-response curve [4] | normalized area under the dose-response curve (LP1 (cancer type: MM)) | normalized area under the dose-response curve [5] | normalized area under the dose-response curve (KMS34 (cancer type: MM)) | normalized area under the dose-response curve (FR4 (cancer type: MM)) | normalized area under the dose-response curve [6] | normalized area under the dose-response curve [7] | normalized area under the dose-response curve (OPM2 (cancer type: MM)) | normalized area under the dose-response curve [8] | normalized area under the dose-response curve (KMS26 (cancer type: MM)) | normalized area under the dose-response curve (KMS11 (cancer type: MM)) | normalized area under the dose-response curve [9] | normalized area under the dose-response curve [10] | normalized area under the dose-response curve (Se-Ax (cancer type: TCL)) | normalized area under the dose-response curve [11] | normalized area under the dose-response curve (My-La (cancer type: TCL)) | normalized area under the dose-response curve (MM1.S (cancer type: MM)) | normalized area under the dose-response curve [12] | normalized area under the dose-response curve (AMO1 (cancer type: MM)) | normalized area under the dose-response curve (JJN3 (cancer type: MM)) | normalized area under the dose-response curve (EJM (cancer type: MM)) | normalized area under the dose-response curve (MM1.R (cancer type: MM)) | normalized area under the dose-response curve [13] | normalized area under the dose-response curve (KMS18 (cancer type: MM)) | normalized area under the dose-response curve (XG2 (cancer type: MM)) | normalized area under the dose-response curve [14] | normalized area under the dose-response curve [15] | normalized area under the dose-response curve [16] | normalized area under the dose-response curve [17] | normalized area under the dose-response curve [18] | normalized area under the dose-response curve [19] | normalized area under the dose-response curve [20] | normalized area under the dose-response curve [21] | normalized area under the dose-response curve [22] | normalized area under the dose-response curve (L363 (cancer type: MM)) |
| --- | --- | --- | --- | --- | --- | --- | --- | --- | --- | --- | --- | --- | --- | --- | --- | --- | --- | --- | --- | --- | --- | --- | --- | --- | --- | --- | --- | --- | --- | --- | --- | --- | --- | --- | --- | --- | --- | --- | --- | --- |
| CN(C)C/C=C/C(=O)Nc1cc2c(Nc3ccc(F)c(Cl)c3)ncnc2cc1O[C@H]1CCOC1 [Afatinib] | 0.558 | 0.372 | 0.709 | 0.801 | 0.642 | 0.69 | 0.637 | 0.497 | 0.461 | 0.685 | 0.758 | 0.643 | 0.692 | 0.548 | 0.848 | 0.53 | 0.811 | 0.531 | 0.604 | 0.62 | 0.74 | 0.5 | 0.63 | 0.562 | 0.57 | 0.66 | 0.49 | 0.53 | 0.822 | 0.496 | 0.796 | 0.682 | 0.739 | 0.467 | 0.819 | 0.496 | 0.477 | 0.636 | 0.529 | 0.521 |
| Cn1ncc(Cl)c1-c1cc(C(=O)N[C@H](CN)Cc2cccc(F)c2)sc1Cl [Afuresertib] | 0.48 | 0.398 | 0.713 | 0.525 | 0.49 | 0.821 | 0.384 | 0.652 | 0.211 | 0.591 | 0.913 | 0.813 | 0.369 | 0.742 | 0.499 | 0.439 | 0.816 | 0.808 | 0.416 | 0.7 | 0.784 | 0.26 | 0.33 | 0.414 | 0.55 | 0.486 | 0.2 | 0.49 | 0.293 | 0.436 | 0.657 | 0.363 | 0.739 | 0.331 | 0.851 | 0.758 | 0.637 | 0.765 | 0.282 | 0.375 |
| COc1cc(Nc2ncc3c(n2)-c2ccc(Cl)cc2C(c2c(F)cccc2OC)=NC3)ccc1C(=O)O [Alisertib] | 0.761 | 0.881 | 0.802 | 0.859 | 0.967 | 0.709 | 0.851 | 0.706 | 0.684 | 0.916 | 0.964 | 0.622 | 0.957 | 0.85 | 0.887 | 0.772 | 0.946 | 0.716 | 0.73 | 0.92 | 0.851 | 0.85 | 0.94 | 0.7 | 0.919 | 0.889 | 0.85 | 0.94 | 0.833 | 0.69 | 0.794 | 0.913 | 0.853 | 0.927 | 0.878 | 0.826 | 0.809 | 0.816 | 0.918 | 0.872 |
| CC(=O)OC[C@H]1O[C@@H]([S-])[C@H](OC(C)=O)[C@@H](OC(C)=O)[C@@H]1OC(C)=O.CCP(CC)CC.[Au+] [Auranofin] | 0.139 | – | – | – | – | – | – | 0.157 | – | – | 0.611 | – | – | 0.0579 | – | – | 0.553 | – | 0.247 | 0.07 | – | 0.09 | 0.08 | – | – | – | 0.05 | 0.33 | – | – | 0.372 | – | 0.344 | – | 0.553 | 0.239 | 0.0417 | – | – | – |
| Nc1ncn([C@@H]2O[C@H](CO)[C@@H](O)[C@H]2O)c(=O)n1 [Azacitidine] | 0.453 | 0.564 | 0.74 | 0.679 | 0.767 | 0.778 | 0.766 | 0.552 | 0.64 | 0.427 | 0.673 | 0.807 | 0.535 | 0.756 | 0.757 | 0.545 | 0.65 | 0.72 | 0.637 | 0.6 | 0.87 | 0.6 | 0.4 | 0.496 | 0.645 | 0.635 | 0.65 | 0.56 | 0.736 | 0.612 | 0.508 | 0.774 | 0.716 | 0.665 | 0.707 | 0.419 | 0.702 | 0.624 | 0.678 | 0.488 |
| O=C(/C=C/c1cccc(S(=O)(=O)Nc2ccccc2)c1)NO [Belinostat] | 0.218 | 0.201 | 0.215 | 0.394 | 0.712 | 0.531 | 0.628 | 0.385 | 0.274 | 0.428 | 0.4 | 0.249 | 0.674 | 0.262 | 0.366 | 0.445 | 0.582 | 0.229 | 0.215 | 0.44 | 0.506 | 0.21 | 0.1 | 0.301 | 0.53 | 0.247 | 0.36 | 0.4 | 0.553 | 0.473 | 0.223 | 0.416 | 0.38 | 0.564 | 0.343 | 0.178 | 0.25 | 0.0712 | 0.384 | 0.473 |
| Cn1c(CCCC(=O)O)nc2cc(N(CCCl)CCCl)ccc21 [Bendamustine hydrochloride] | 0.794 | 0.835 | 0.74 | 0.92 | 0.955 | 0.885 | 0.946 | 0.684 | 0.755 | 0.955 | 0.795 | 0.86 | 0.842 | 0.932 | 0.677 | 0.849 | 0.911 | 0.87 | 0.719 | 0.74 | 0.862 | 0.68 | 0.75 | 0.849 | 0.938 | 0.815 | 0.67 | 0.74 | 0.832 | 0.875 | 0.832 | 0.869 | 0.834 | 0.879 | 0.784 | 0.779 | 0.921 | 0.831 | 0.847 | 0.84 |
| O=C1CC[C@H](N2Cc3c(OCc4ccc(CN5CCOCC5)cc4)cccc3C2=O)C(=O)N1 [Iberdomide] | 0.996 | – | – | – | – | – | – | 0.917 | – | – | 0.921 | – | – | 0.913 | – | – | 0.887 | – | 0.953 | 0.94 | – | 0.78 | 0.86 | – | – | – | 0.91 | 0.93 | – | – | 0.968 | – | 0.809 | – | 0.983 | 0.913 | 0.947 | – | – | – |
| CC(C)C[C@H](NC(=O)CNC(=O)c1cc(Cl)ccc1Cl)B(O)O [Ixazomib] | 0.186 | – | 0.355 | – | – | 0.129 | 0.344 | 0.114 | 0.306 | – | 0.453 | 0.14 | – | 0.0319 | 0.157 | – | 0.855 | 0.104 | 0.146 | 0.12 | 0.355 | 0.09 | 0.1 | – | – | – | 0.05 | 0.45 | – | 0.0819 | 0.362 | – | 0.303 | – | 0.285 | 0.156 | 0.027 | 0.403 | – | – |
| Cc1[nH]c(/C=C2\C(=O)Nc3ccc(F)cc32)c(C)c1C(=O)NCCN1CCCC1 [Toceranib] | 0.561 | – | 0.818 | – | – | 0.898 | 0.796 | 0.702 | 0.667 | – | 0.959 | 0.898 | – | 0.884 | 0.906 | – | 0.894 | 0.831 | 0.728 | 0.86 | 0.993 | 0.82 | 0.88 | – | – | – | 0.83 | 0.79 | – | 0.723 | 1.06 | – | 0.894 | – | 0.902 | 0.756 | 0.967 | 0.757 | – | – |

From the supplement of paper PMC7214452
